Data set [1] concerns dimethylnitrosamine induced liver fibrosis. Conditions: cited from earlier work.
The target of data set [2] is T1, human ALK5 (kinase domain, ALK5 T204D) (Homo sapiens, UniProt P36897, T204D).
T1 construct: The kinase domain of human ALK5 (amino acids 200-503); made in house; host or cells: insect cells (baculovirus)
T1 sequence (P36897 200-503 T204D): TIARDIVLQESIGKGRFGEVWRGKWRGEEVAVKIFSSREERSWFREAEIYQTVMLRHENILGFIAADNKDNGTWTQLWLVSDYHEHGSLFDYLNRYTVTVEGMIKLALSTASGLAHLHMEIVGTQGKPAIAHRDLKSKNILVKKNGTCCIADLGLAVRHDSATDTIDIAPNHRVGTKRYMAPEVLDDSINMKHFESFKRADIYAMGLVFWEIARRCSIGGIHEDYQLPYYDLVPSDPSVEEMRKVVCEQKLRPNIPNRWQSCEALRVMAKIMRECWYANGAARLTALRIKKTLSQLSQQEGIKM
Kind of data set: ALK5 kinase assay ([33P] phosphate incorporation into casein). Format: biochemical. Particulars: casein substrate, 1 μM unlabelled ATP. The procedure, abridged:
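His-tagged human ALK5 T204D kinase domain (aa 200-503, constitutively active, baculovirus/insect-cell expressed), 50 ng/well, preincubated 10 min with compound and dephosphorylated casein (200 μg/well) in Tris pH 7.4/MgCl2/MnCl2. Reaction started with 1 μM ATP plus [33P]ATP, 50 min at room temperature, EDTA-stopped; casein-bound 33P counted by scintillation after filter capture.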

Data set [3] has as its system bleomycin-induced pulmonary fibrosis. Particulars: bleomycin-treated rats; cited from earlier work.
[4] abbreviates: given therapeutically to rat, 3 weeks treatment.

For orientation: IC50 means the concentration that gives 50% inhibition. Lower therefore signals greater potency in that assay.

For the molecule `c1ccc(-c2cc(-c3cn[nH]c3-c3ccccn3)ccn2)cc1` [GW6604], in data set [1] (setting [4]), the “inhibition of extracellular matrix deposition” value is 60% and the “prevention of death rate” value is on record as 40%. Further, in data set [1] (rat, in vivo), the side effects entry is given as “no obvious side effects”.

In data set [2], `Cc1cccc(-c2nc(-c3cncc(-c4ccc(N5CCCCC5)cc4)c3)c3cc[nH]c3n2)n1` [Example 17, 2-(6-Methyl-pyridin-2-yl)-4-[5-(4-piperidin-1-yl-phenyl)-pyridin-3-yl]-7H-pyrrolo[2,3-d]pyrimidine] displayed an IC50 of 929 nM.

In data set [2], `Cc1cccc(-c2cc(-c3cncc(-c4cccc(CN(C)C)c4)c3)c3cc[nH]c3n2)n1` [Example 66, Dimethyl-(3-{5-[6-(6-methyl-pyridin-2-yl)-1H-pyrrolo[2,3-b]pyridin-4-yl]-pyridin-3-yl}-benzyl)-amine] came in with an IC50 of less than 69 nM.

For the molecule `Cc1cccc(-c2cc(-c3cncc(-c4ccc([C@H](C)N)cc4)c3)c3cc[nH]c3n2)n1` [Example 127, (S)-1-(4-{5-[6-(6-Methyl-pyridin-2-yl)-1H-pyrrolo[2,3-b]pyridin-4-yl]-pyridin-3-yl}-phenyl)-ethylamine], the IC50 in data set [2] was determined as 17 nM.

For `Cc1cccc(-c2cc(-c3cncc(-c4ccc(CN5CCOCC5)cc4)c3)c3cc[nH]c3n2)n1` [Example 88, 6-(6-Methyl-pyridin-2-yl)-4-[5-(4-morpholin-4-ylmethyl-phenyl)-pyridin-3-yl]-1H-pyrrolo[2,3-b]pyridine], the concentration for half-maximal inhibition (IC50) in data set [2] was 20 nM.

`Cc1cccc(-c2nc(-c3cncc(-c4ccc(C(C)N)cc4)c3)c3cc[nH]c3n2)n1` (stereo not shown) [Example 81, 1-(4-{5-[2-(6-Methyl-pyridin-2-yl)-7H-pyrrolo[2,3-d]pyrimidin-4-yl]-pyridin-3-yl}-phenyl)-ethylamine]: inhibition in data set [2] was half-maximal at 17 nM (IC50).

`Cc1cccc(-c2cc(-c3cncc(NC(=O)CCN(C)C)c3)c3cc[nH]c3n2)n1` [Example 62, 3-Dimethylamino-N-{5-[6-(6-methyl-pyridin-2-yl)-1H-pyrrolo[2,3-b]pyridin-4-yl]-pyridin-3-yl}-propionamide] displayed a 50% inhibitory concentration (IC50) in data set [2] of 40 nM.

Molecule `Cc1cccc(-c2nc(-c3cncc(-c4ccc(CNCCO)cc4)c3)c3cc[nH]c3n2)n1` [Example 151] returned an IC50 in data set [2] of 5.8 nM.

Molecule `Cc1cccc(-c2nc(-c3cncc(C(=O)NCCCO)c3)c3cc[nH]c3n2)n1` [Example 26, N-(3-Hydroxy-propyl)-5-[2-(6-methyl-pyridin-2-yl)-7H-pyrrolo[2,3-d]pyrimidin-4-yl]-nicotinamide] came in with an IC50 in data set [2] of 465 nM.

B1: follistatin: "follistatin, an antagonist of activin signalling" (protein, UniProt P19883 30-344, looked up)
Follistatin: GNCWLRQAKNGRCQVLYKTELSKEECCSTGRLSTSWTEEDVNDNTLFKWMIFNGGAPNCIPCKETCENVDCGPGKKCRMNKKNKPRCVCAPDCSNITWKGPVCGLDGKTYRNECALLKARCKEQPELEVQYQGRCKKTCRDVFCPGSSTCVVDQTNNAYCVTCNRICPEPASSEQYLCGNDGVTYSSACHLRKATCLLGRSIGLAYEGKCIKAKSCEDIQCTGGKKCLWDFKVGRGRCSLCDELCPDSKSDEPVCASDNATYASECAMKEAACSSGVLLEVKHSGSCNSISEDTEEEEEDEDQDYSFPISSILEW
For the molecule B1, in data set [3], the lung fibrosis entry is “attenuated lung fibrosis”; the “number of macrophages and neutrophils in bronchoalveolar lavage” value is given as “significantly reduced”.
